Measured values taken from US7893081B2, “Tyrosine kinase inhibitors” (Merck & Co., Inc., priority 2007, dated 2011).
pIC50: −log10 of the molar value. Where a name gives a salt, the structure may show the parent alone.

Assays:
[1] = Solubility in water of the salt forms of Compound 1; assay type: physicochemical; settings: for Native pH: pH of the aqueous solubility sample
Hygroscopicity (25° C.) = assay type: physicochemical; settings: up to 80% RH
[2] = Chemical and physical stability at 40° C./75% relative humidity; assay type: physicochemical; settings: 6 Months at 40° C./75% relative humidity (RH)
human c-Met = human c-Met (Homo sapiens, UniProt P08581); experiment: biochemical
Procedure: The procedure for determining the potency of a compound to inhibit c-Met kinase comprises the following steps: • 1. Prepare 3-fold serial diluted compound solutions in 100% dimethyl sulfoxide (DMSO) at 20× of the desired final concentrations in a 96 well plate. • 2. […] In a black assay plate, add 2.5 μl of compound solution (or DMSO) and 37.5 μl of master reaction mix per well. Initiate the kinase reaction by adding 10 μl of 0.25 mM MgATP per well. Allow the reactions to proceed for 80 min at room temperature. The final conditions for the reaction are 0.2 nM c-Met, 0.5 μM substrate, 50 μM MgATP, 5 mM MgCl2, 100 mM NaCl, 2 mM DTT, 0.1 mg/ml BSA, 50 mM Tris (pH 7.4) and 5% DMSO. • 4. […] Read HTRF signals on a Victor reader (PerkinElmer) in HTRF mode after 60 min. • 6.

[3] = listed as Crystalline potassium salt, potassium salt monohydrate
[4] = listed as Crystalline Sodium salt, sodium salt dihydrate

Sequence of human c-Met (P08581 956-1390 limits assumed): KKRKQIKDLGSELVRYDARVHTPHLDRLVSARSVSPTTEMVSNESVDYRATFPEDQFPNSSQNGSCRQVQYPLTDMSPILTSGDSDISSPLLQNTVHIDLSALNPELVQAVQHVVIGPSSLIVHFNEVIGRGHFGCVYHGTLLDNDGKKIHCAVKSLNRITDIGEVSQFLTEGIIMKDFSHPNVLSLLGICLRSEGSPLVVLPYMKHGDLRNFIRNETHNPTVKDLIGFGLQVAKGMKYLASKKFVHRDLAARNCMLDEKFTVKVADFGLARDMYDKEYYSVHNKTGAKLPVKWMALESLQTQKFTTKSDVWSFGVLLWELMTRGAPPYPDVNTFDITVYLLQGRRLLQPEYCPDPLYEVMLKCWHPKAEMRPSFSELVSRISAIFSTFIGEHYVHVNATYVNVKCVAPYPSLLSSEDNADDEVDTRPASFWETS

In the case of `CN(C[C@@H]1COCCO1)S(=O)(=O)Nc1ccc2ccc3ncc(-c4cnn(C)c4)cc3c(=O)c2c1` [Compound 1 potassium salt monohydrate, N-[(2R)-1,4-dioxan-2-ylmethyl]-N-methyl-N′-[3-(1-methyl-1H-pyrazol-4-yl)-5-oxo-5H-benzo[4,5]cyclohepta[1,2-b]pyridin-7-yl]sulfamide potassium salt monohydrate], the “Native pH” value [1, 3] was “pH = 10.7”, the Solubility in water [1, 3] was over 170 mg/mL and the “Hygroscopicity (25° C.)” value (Hygroscopicity (25° C.); [3]) was 0.81% up.
With `CN(C[C@@H]1COCCO1)S(=O)(=O)Nc1ccc2ccc3ncc(-c4cnn(C)c4)cc3c(=O)c2c1` [Compound 1 sodium salt dihydrate, N-[(2R)-1,4-dioxan-2-ylmethyl]-N-methyl-N′-[3-(1-methyl-1H-pyrazol-4-yl)-5-oxo-5H-benzo[4,5]cyclohepta[1,2-b]pyridin-7-yl]sulfamide sodium salt dihydrate] the “Native pH” value [1, 4] was “pH = 10.5”, the Solubility in water [1, 4] was over 400 mg/mL and the “chemical and physical stability” value [2] was “chemically and physically stable”. For the same compound, the “Hygroscopicity (25° C.)” value (Hygroscopicity (25° C.); [4]) was 0.14% up.
With `CN(C[C@@H]1COCCO1)S(=O)(=O)Nc1ccc2ccc3ncc(-c4cnn(C)c4)cc3c(=O)c2c1` [Compound 1, N-[(2R)-1,4-dioxan-2-ylmethyl]-N-methyl-N′-[3-(1-methyl-1H-pyrazol-4-yl)-5-oxo-5H-benzo[4,5]cyclohepta[1,2-b]pyridin-7-yl]sulfamide] the Solubility in water ([1]; listed as Free Acid) was 0.003 mg/mL, the pIC50 (human c-Met) was at most 4.30 and the “Hygroscopicity (25° C.)” value (Hygroscopicity (25° C.); listed as Free Acid) was 0.4% up to.
